Earlier results, collected in patent US20240299470A1, “METHODS OF PROBIOTIC TREATMENT TO IMPROVE HUMAN HEALTH” (SEED HEALTH INC., priority 2021, published 2024).

Experiments:
overweight individuals = settings: delivered directly in the colon
mice = settings: NOD2-dependent but MyD88-independent

Compound	energy intake, adiposity, and lipid liver content (overweight individuals)	plasma levels of peptide YY (PYY) and glucagon-like peptide 1 (GLP-1) (overweight individuals)	protection from colitis (mice)
CCC(=O)O [propionate]	reduced	increased	–
M-tri-Lys	–	–	protected mice from colitis
